# From publication PMC7038240 (Antimicrobial Agents and Chemotherapy, 2020)
# Like-named read-outs stand apart in the source and are kept apart here.
# What was measured:
# [1] = tested on: E. coli DH5α producing individual β-lactamases; experiment: Broth microdilution MIC in engineered strains (BLI fixed at 4 μg/ml); assay type: cell-based, Escherichia coli; details: panel of 34 strains
# Procedure: The spectrum of antibacterial activity of cefepime-taniborbactam and the breadth of inhibitory activity of this next-generation cyclic boronate BLI were assessed in 34 engineered E. coli strains each overproducing an individual β-lactamase and directly compared to those of the clinically approved agent ceftazidime-avibactam. In this manner, the antibacterial activity of the BL-BLI combinations relative to that of the partnered cephalosporins alone provided a quantitative measure of β-lactam potentiation that directly reflects the levels of inhibition of β-lactamase function achieved by addition of BLI. The BLI concentration was fixed at 4 μg/ml, as described in Materials and Methods.
# The isogenic strains were used to establish a spectrum of inhibitory activity against 34 β-lactamases that were engineered into E. coli DH5α cells carrying chromosomal AmpC (ESC-1), a non-ESBL enzyme unable to hydrolyze these third- or fourth-generation cephalosporins. […]. The DNA fragments containing the promoter, the signal sequence, and each β-lactamase-coding gene were synthesized and cloned into pTwist Chlor High Copy in DH5α at Twist Bioscience. The individual expression plasmids along with their GenBank accession numbers are listed in Table S2 in the supplemental material and below. The protein sequences of β-lactamases were obtained from the Beta-Lactamase DataBase (www.bldb.eu) ([47]). Expression of the β-lactamases was confirmed by verifying decreased susceptibility to example test antibiotics that are known substrates of the enzymes. E. coli DH5α carrying pTU501, which expressed only the TEM-1 signal sequence from the bla promoter, was used as a control. The plasmid sequences are available through GenBank (Table S2).
# (§1) The in vitro antibacterial activity of the β-lactams alone or in combination with the BLIs was determined in cation-adjusted Mueller-Hinton broth (CAMHB) microdilution assays according to CLSI recommendations ([51]). […]. The inocula for the broth microdilution assays were prepared by the broth culture method ([51]). […]
# CTX-M-15 [2] = target: T1, CTX-M-15 (Escherichia coli, UniProt Q9EXV5); details: half-life of active-site occupancy
# Procedure: (§5) A reversible two-step inhibition model was fit to the data.
# (§6) Pseudo-first-order rate constants of enzyme inactivation (kobs) were determined in the presence of various inhibitor concentrations by fitting equation 2 to the time courses.(2) P=Vst+(V0−Vs)(1−e^−kt)/k where P is product, Vs is rate at steady state, t is time, V0 is initial velocity, and k is rate of inactivation. A plot of kobs versus the inhibitor concentrations generated a linear plot with a slope of (k2/Ki) and a y intercept of k−2 (equation 3). The reported values were corrected for the substrate concentration and the Km for each substrate-enzyme combination, as defined by the 1 + ([S]/Km) term in equation 4, where S is the substrate concentration, used to obtain the second-order rate constant k2/Ki and the off rate (k−2). The error values reported are standard errors from the fit.(3) kobs=k−2+(k2/Ki)[I]/[1+([S]/Km)]
# (§7) The percentage of enzyme activity at each assay point was determined by comparison to the activity of the enzyme in the absence of inhibitor, and the recovery of enzymatic activity was fit to a single exponential with the associated standard deviation.
# KPC-2 [3] = target: T2, KPC-2 (Klebsiella pneumoniae, UniProt Q9F663); details: half-life of active-site occupancy
# Procedure: as §5, §6, §7
# P99 AmpC [4] = target: T3, P99 AmpC (Enterobacter cloacae, UniProt P05364); details: half-life of active-site occupancy
# Procedure: as §5, §6, §7
# CTX-M-15 [5] = target: T1, CTX-M-15; experiment: biochemical
# Procedure: as §5, §6, §7
# P99 AmpC [6] = target: T3, P99 AmpC; experiment: biochemical
# Procedure: as §5, §6, §7
# IMP-1 = IMP-1 (Serratia marcescens, UniProt P52699); experiment: Inhibition assay, nitrocefin substrate; details: class B
# NDM-1 = NDM-1 (Klebsiella pneumoniae, UniProt C7C422); experiment: Steady-state competitive inhibition, cefotaxime substrate
# VIM-2 = VIM-2 (Escherichia coli, UniProt Q5U7L7); experiment: Steady-state competitive inhibition, nitrocefin substrate
# [7] = tested on: VIM-2 and NDM-1 metallo-β-lactamases; experiment: Inhibition of VIM-2 and NDM-1 MBLs (modality, reversibility, range); details: up to 50 μM
# E. coli = experiment: microbe, parasite or virus in culture; assay type: cell-based; details: Escherichia coli, read-out: MIC
# Text: (§2) The antibacterial activity of cefepime-taniborbactam was compared to that of ceftazidime-avibactam, ceftolozane-tazobactam, and cefepime-tazobactam against a diverse panel of Enterobacterales and P. aeruginosa clinical isolates with defined β-lactamase subtypes (see Table S1 in the supplemental material). IMP-producing strains were excluded, as none of the BLI-protected cephalosporins inhibited IMP sufficiently to provide a clinically relevant rescue of the partner β-lactam, a characteristic also shared by approved BLI-protected carbapenems (meropenem-vaborbactam and imipenem-relebactam). […] The antibacterial activity of the cephalosporins alone was included to ascertain the level of potentiation by the partnered BLI. BLIs were tested at a fixed concentration of 4 μg/ml in all combinations except cefepime-tazobactam, where tazobactam was fixed at a concentration of 8 μg/ml ([38]). The collection comprised 143 clinical isolates collected from 2005 and 2018.
# as §1
# K. pneumoniae = experiment: microbe, parasite or virus in culture; assay type: cell-based; details: Klebsiella pneumoniae, read-out: MIC
# Text: as §2, §1
# P. aeruginosa = experiment: microbe, parasite or virus in culture; assay type: cell-based; details: Pseudomonas aeruginosa, read-out: MIC
# Text: as §2, §1
# [8] = tested on: Enterobacterales clinical isolates; experiment: MIC distributions in panels of clinical isolates (MIC50, MIC90, % susceptible); assay type: cell-based
# Procedure: (§3) The antibacterial activity of the cephalosporins alone was included to ascertain the level of potentiation by the partnered BLI. BLIs were tested at a fixed concentration of 4 μg/ml in all combinations except cefepime-tazobactam, where tazobactam was fixed at a concentration of 8 μg/ml ([38]).
# (§4) The in vitro antibacterial activity of the β-lactams alone or in combination with the BLIs was determined in cation-adjusted Mueller-Hinton broth (CAMHB) microdilution assays according to CLSI recommendations ([51]). […] The inocula for the broth microdilution assays were prepared by the broth culture method ([51]).
# [9] = tested on: P. aeruginosa clinical isolates; experiment: microbe, parasite or virus in culture; assay type: cell-based, Pseudomonas aeruginosa
# Procedure: as §3, §4
# [10] = tested on: E. coli, K. pneumoniae, and P. aeruginosa reference type isolates; experiment: MIC against panel of seven reference type isolates; assay type: cell-based
# Procedure: […]. This panel encompassed 3 E. coli, 2 K. pneumoniae, and 2 P. aeruginosa isolates and included four quality control (QC) isolates for broth microdilution ([37]). […]. Among the β-lactamase-producing Enterobacterales isolates, E. coli NCTC 13353 producing CTX-M-15 and K. pneumoniae BAA-1705 producing KPC-2 are routine QC isolates used for the testing of cefepime-taniborbactam ([37]). […].
# as §1
# [11] = tested on: DrugMatrixScreen panel of pharmacological targets; experiment: DrugMatrixScreen panel (binding, enzymatic, uptake assays; Eurofins/Panlabs); details: 100 μM
# KPC-2 [12] = target: T2, KPC-2; experiment: biochemical
# Procedure: as §5, §6, §7
# OXA-48 = OXA-48 (Klebsiella pneumoniae, UniProt Q6XEC0); experiment: Ki* determination, imipenem substrate
# Procedure: as §6
# SHV-5 = SHV-5 (Klebsiella pneumoniae, UniProt P0A3M1); experiment: Ki* determination, cefotaxime substrate
# Procedure: as §6
# [13] = tested on: serine β-lactamases (SBLs); experiment: Kinetic parameters and Ki, ranges over serine β-lactamases; details: CTX-M-15, P99 AmpC, and KPC-2
# Procedure: as §5, §6, §7
# T3 sequence (P05364 21-381): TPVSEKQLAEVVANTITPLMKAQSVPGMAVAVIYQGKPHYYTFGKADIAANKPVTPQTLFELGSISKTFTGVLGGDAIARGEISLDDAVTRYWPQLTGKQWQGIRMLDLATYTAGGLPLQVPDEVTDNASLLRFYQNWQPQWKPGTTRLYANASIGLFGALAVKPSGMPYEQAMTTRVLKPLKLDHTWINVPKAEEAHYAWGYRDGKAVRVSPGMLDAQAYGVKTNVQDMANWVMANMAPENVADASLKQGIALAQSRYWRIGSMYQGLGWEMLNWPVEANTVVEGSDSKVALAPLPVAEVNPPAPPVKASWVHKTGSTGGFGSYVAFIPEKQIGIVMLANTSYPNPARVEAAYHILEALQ
# Sequence of IMP-1 (P52699 19-246 limits assumed): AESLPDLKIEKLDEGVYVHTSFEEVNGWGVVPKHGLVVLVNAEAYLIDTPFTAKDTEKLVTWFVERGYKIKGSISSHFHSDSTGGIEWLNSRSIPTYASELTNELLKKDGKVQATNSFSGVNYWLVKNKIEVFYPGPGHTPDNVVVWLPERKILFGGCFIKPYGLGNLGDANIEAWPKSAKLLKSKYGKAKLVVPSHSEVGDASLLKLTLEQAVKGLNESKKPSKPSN
# T2 sequence (Q9F663 25-293, looked up, species assumed): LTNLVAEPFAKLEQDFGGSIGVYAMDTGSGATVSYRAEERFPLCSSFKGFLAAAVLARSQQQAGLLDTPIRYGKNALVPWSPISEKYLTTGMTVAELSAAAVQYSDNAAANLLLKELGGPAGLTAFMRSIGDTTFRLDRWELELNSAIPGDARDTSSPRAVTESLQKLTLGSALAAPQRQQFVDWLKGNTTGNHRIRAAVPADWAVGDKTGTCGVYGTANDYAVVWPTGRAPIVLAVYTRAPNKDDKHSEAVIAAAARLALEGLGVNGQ
# T1 sequence (Q9EXV5 29-291, species assumed): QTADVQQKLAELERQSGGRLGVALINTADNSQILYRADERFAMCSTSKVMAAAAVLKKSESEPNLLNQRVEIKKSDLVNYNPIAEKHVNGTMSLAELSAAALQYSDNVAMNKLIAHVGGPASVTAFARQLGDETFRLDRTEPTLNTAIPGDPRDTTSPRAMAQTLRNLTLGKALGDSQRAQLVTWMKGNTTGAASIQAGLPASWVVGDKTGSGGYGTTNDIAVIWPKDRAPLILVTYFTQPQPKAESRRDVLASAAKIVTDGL
# Sequence of NDM-1 (C7C422 29-270, looked up, species assumed): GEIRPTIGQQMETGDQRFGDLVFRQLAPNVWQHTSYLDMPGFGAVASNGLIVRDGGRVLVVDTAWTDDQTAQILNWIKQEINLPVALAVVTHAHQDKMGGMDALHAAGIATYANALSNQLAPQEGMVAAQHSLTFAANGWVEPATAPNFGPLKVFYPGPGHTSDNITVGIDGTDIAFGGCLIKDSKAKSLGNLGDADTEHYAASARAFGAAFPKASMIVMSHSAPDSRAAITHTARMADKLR
# Sequence of OXA-48 (Q6XEC0 23-265, looked up, species assumed): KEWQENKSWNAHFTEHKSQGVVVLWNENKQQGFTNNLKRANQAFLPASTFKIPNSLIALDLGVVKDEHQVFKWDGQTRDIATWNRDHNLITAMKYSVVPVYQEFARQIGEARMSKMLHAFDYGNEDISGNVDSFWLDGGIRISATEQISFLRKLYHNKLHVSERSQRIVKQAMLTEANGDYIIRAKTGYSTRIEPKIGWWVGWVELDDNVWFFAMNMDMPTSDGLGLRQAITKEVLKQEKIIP
# Sequence of SHV-5 (P0A3M1 22-286): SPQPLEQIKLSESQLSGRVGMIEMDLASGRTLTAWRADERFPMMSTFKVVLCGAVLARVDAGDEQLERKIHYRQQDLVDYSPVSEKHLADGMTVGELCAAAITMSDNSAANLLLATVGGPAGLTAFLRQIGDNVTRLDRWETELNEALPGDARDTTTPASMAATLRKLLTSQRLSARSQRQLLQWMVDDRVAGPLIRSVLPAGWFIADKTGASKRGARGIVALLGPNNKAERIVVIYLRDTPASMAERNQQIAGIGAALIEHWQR
Compound,modal potentiation of partner cephalosporin MIC [1] [fold],t1/2 (CTX-M-15 [2]) [min],t1/2 (KPC-2 [3]) [min],t1/2 (P99 AmpC [4]) [min],Ki (CTX-M-15 [5]) [nM],Ki (P99 AmpC [6]) [nM],Ki (IMP-1) [nM],Ki (NDM-1) [nM],Ki (VIM-2) [nM],inhibition of MBLs [7],Ki (KPC-2 [12]) [nM],Ki (OXA-48) [nM],also measured
NC(=O)[C@@H]1CC[C@@H]2CN1C(=O)N2OS(=O)(=O)O [Avibactam],64,29 ± 1,66 ± 4,249 ± 19,11 ± 1,13 ± 0.3,> 30000,> 30000,> 30000,no significant inhibition,,,
NCCN[C@H]1CC[C@H](CC(=O)N[C@H]2Cc3cccc(C(=O)O)c3OB2O)CC1 [Taniborbactam],512,34 ± 2,105 ± 5,30 ± 3,17 ± 2,2 ± 0.3,≥ 30000,,19 ± 1,,4 ± 1,350 ± 7,"MIC (E. coli; ATCC25922, E. coli ATCC 25922, enzyme content None): 512 µg/mL; MIC (E. coli; E. coli CDC-0452, NDM): 512 µg/mL; MIC (E. coli; NCTC13353, E. coli NCTC 13353, CTX-M-15): 512 µg/mL; MIC (K. pneumoniae; ATCC13883, K. pneumoniae ATCC 13883, enzyme content None): 512 µg/mL; MIC (K. pneumoniae; BAA1705, K. pneumoniae BAA 1705, KPC-2): 1020 µg/mL; MIC (P. aeruginosa; ATCC27853, P. aeruginosa ATCC 27853, PDC-5): 1020 µg/mL; MIC (P. aeruginosa; P. aeruginosa CDC-0457, VIM): 1020 µg/mL; MIC90 [8]: 1 µg/mL; MIC90 ([9]; Pseudomonas aeruginosa, all 41 isolates of P. aeruginosa): 4 µg/mL; MIC [10]: ≥ 512 µg/mL; antibacterial activity alone ([10]; taniborbactam alone): lacks antibacterial activity; inhibition, off-target ([11]; 128 of 129 in vitro assays): ≤ 23%; inhibition ([11]; the one exception, a β-lactamase): > 50%; Ki (SHV-5): 3 ± 0.2 nM"
O=C(O)C[C@@H]1CC[C@H](NC(=O)Cc2cccs2)B(O)O1 [Vaborbactam],,5 ± 0.2,21 ± 2,32 ± 3,158 ± 6,53 ± 4,> 30000,> 30000,> 30000,no significant inhibition,22 ± 2,350 ± 7,"koff (CTX-M-15 [5]): 0.0023 ± 9e-05 s⁻¹; kinact/KI (CTX-M-15 [5]; pH 7, read-out: k2/Ki): 1100 ± 100 M⁻¹ s⁻¹; koff (KPC-2 [12]): 0.00054 ± 5e-05 s⁻¹; kinact/KI (KPC-2 [12]; pH 7, read-out: k2/Ki): 1200 ± 100 M⁻¹ s⁻¹; koff (P99 AmpC [6]): 0.00037 ± 3e-05 s⁻¹; kinact/KI (P99 AmpC [6]; pH 7, read-out: k2/Ki): 1800 ± 100 M⁻¹ s⁻¹; second-order rate constants (k2/Ki), order of magnitude [13]: ~10^3 M^−1 s^−1"
C[C@]1(Cn2ccnn2)[C@H](C(=O)O)N2C(=O)C[C@H]2S1(=O)=O [tazobactam],,,,,,,,,,,,,"fold reduction of cefepime MIC90 by addition of BLI ([9]; 14 isolates, subdivision 3): 2 fold; fold reduction of ceftolozane MIC90 by addition of BLI ([9]; 14 isolates, subdivision 3): 4 fold"
